Measured values published in ChEMBL document CHEMBL5233237, “Agonist and antagonist ligands of toll-like receptors 7 and 8: Ingenious tools for therapeutic purposes” (Eur J Med Chem, 2020).
Blank lines part the entries; values can stand above or below the compound they belong to.

Tests used:
[1] = biological target: Mitogen-activated protein kinase 3 (Homo sapiens, UniProt P27361); assay: Binding affinity to ERK1 (unknown origin) by surface plasmon resonance assay
[2] = Binding affinity to RasGAP (unknown origin) by surface plasmon resonance assay; design: species or system Homo sapiens
Toll-like receptor 7 = biological target: T1, Toll-like receptor 7 (Homo sapiens, UniProt Q9NYK1); assay: Agonist activity at human TLR7 transfected in HEK-Blue hTLR7 cells; type: cell-based
T1 sequence (Q9NYK1 whole entry): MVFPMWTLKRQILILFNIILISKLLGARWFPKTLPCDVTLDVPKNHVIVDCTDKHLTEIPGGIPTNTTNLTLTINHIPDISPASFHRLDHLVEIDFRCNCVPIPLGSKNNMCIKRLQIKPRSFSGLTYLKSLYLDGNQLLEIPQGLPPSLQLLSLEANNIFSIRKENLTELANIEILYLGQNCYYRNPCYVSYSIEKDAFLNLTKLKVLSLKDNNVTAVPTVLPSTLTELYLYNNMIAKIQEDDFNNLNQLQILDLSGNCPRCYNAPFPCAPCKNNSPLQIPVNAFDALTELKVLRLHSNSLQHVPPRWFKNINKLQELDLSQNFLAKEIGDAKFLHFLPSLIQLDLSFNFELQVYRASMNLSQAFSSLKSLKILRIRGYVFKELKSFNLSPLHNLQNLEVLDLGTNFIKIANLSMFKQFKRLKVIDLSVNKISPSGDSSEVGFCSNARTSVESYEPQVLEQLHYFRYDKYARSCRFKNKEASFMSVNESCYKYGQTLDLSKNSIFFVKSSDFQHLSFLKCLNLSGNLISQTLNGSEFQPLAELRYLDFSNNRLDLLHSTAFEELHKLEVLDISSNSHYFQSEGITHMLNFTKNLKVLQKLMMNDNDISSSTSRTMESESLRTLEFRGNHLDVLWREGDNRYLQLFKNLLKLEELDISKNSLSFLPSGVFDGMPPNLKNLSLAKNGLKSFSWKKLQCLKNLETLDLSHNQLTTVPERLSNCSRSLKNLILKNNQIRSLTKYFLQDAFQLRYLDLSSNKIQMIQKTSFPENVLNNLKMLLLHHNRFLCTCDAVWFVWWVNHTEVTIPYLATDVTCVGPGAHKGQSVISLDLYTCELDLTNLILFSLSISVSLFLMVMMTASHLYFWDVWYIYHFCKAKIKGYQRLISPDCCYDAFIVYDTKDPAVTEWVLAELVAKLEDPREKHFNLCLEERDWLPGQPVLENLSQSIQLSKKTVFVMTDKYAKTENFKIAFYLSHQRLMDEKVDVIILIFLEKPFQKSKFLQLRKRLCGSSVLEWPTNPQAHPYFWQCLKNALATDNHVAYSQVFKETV

Toll-like receptor 8 [3] = biological target: T2, Toll-like receptor 8 (Homo sapiens, UniProt Q9NR97); assay: Agonist activity at human TLR8 transfected in HEK-Blue hTLR8 cells; type: cell-based
T2 sequence (Q9NR97 whole entry): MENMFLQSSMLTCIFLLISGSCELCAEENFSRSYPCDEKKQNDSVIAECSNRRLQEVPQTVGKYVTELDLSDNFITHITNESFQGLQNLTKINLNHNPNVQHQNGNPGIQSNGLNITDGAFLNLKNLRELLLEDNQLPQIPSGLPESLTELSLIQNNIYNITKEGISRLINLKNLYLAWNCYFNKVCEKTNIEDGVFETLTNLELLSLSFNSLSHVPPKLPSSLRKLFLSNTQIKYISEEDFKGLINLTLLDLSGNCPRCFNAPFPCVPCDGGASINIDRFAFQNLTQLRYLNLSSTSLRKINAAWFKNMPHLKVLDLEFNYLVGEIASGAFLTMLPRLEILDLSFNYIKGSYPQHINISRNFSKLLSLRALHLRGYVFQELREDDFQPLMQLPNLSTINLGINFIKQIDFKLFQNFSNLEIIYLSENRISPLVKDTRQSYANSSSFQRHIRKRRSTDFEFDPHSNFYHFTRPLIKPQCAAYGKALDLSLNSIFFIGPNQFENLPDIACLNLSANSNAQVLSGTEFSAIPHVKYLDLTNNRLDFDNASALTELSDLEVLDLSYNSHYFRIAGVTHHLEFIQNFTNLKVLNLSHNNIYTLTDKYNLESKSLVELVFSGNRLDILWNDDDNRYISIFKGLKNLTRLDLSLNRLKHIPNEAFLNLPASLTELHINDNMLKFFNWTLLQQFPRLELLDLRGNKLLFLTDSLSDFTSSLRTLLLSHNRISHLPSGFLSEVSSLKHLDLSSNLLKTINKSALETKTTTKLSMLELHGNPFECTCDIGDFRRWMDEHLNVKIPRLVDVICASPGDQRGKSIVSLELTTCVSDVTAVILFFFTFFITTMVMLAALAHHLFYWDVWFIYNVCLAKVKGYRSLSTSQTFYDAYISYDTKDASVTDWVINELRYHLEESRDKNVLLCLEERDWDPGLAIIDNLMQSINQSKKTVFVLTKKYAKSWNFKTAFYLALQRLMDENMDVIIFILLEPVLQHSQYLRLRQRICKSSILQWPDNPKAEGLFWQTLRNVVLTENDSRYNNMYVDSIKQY

Toll-like receptor 8 [4] = biological target: T2, Toll-like receptor 8; assay: Agonist activity in TLR8 (unknown origin) expressed in HEK293 cells assessed as induction of NF-kappa activation; type: cell-based
[5] = biological target: T3, Toll-like receptor 8 (Homo sapiens) (UniProt Q9NR97); assay: (§1) Agonist activity at human TLR8; conditions: filed as agonist
T3 sequence (whole entry): T2 sequence (Q9NR97 whole entry)

Toll-like receptor 8 [6] = biological target: T2, Toll-like receptor 8; assay: as §1
B16 = assay: Antitumor activity against mouse B16 cells xenografted in mouse assessed as inhibition of tumor growth at 2 mg measured after 3 days; type: functional; design: scale not given: the % may be the effect or the level left; conditions: time 3 day
Mus musculus = assay: Potency index ratio of imiquimod MED to test compound MED for induction of IFN in po dosed mouse assessed as minimum effective dose; type: functional
Hepatitis C virus = assay: Antiviral activity against HCV infected in human Huh-7 cells assessed as reduction in HCV level at 1 to 10 uM measured after 24 h by real-time PCR method; design: scale not given: the % may be the effect or the level left; conditions: dose 1-10 µM

Sequence of Mitogen-activated protein kinase 3 (P27361 whole entry): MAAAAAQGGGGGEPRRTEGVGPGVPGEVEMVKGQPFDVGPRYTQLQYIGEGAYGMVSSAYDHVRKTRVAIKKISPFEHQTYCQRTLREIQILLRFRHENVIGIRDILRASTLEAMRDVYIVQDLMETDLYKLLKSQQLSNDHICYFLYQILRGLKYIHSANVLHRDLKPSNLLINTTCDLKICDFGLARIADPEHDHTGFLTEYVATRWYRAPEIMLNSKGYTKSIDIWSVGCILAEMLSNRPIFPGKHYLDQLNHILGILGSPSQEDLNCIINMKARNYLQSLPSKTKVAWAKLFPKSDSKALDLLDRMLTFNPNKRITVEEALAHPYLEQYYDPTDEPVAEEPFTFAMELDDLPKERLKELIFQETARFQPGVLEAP

SMILES: Cc1cc(Nc2ncc3c(n2)N(C)C(=O)N(c2cc(NC(=O)c4cccc(C(F)(F)F)c4)ccc2C)C3)n(C)n1
Kd [1]: 98 nM | Kd [2]: 212 nM

SMILES: C=CCn1c(=O)n([C@@H]2O[C@H](CO)[C@@H](O)[C@H]2O)c2nc(N)[nH]c(=O)c21 [LOXORIBINE]
Activity (B16): 96%

SMILES: COCCOc1nc(N)c2[nH]c(=O)n(Cc3ccccc3)c2n1
Ratio (Mus musculus): 100 | Activity (Hepatitis C virus): 60%

Next, values leading:

EC50 (Toll-like receptor 7): 15000 nM | EC50 (Toll-like receptor 8 [3]): 30 nM | EC50 (Toll-like receptor 8 [4]): 30 nM
SMILES: CCOC(=O)C1=Cc2ccc(-c3cccc(C#N)c3)cc2N=C(N)C1

EC50 [5]: 1600 nM
SMILES: CCCCc1nc2c(N)nc3cc(C(=O)OC)ccc3c2n1CCCCCN

EC50 (Toll-like receptor 8 [6]): 200 nM
SMILES: CCCCc1nc2c(N)nc3ccccc3c2s1
